# Values of other authors as cited in patent publication US20080081067A1, “SUSTAINED RELEASE PHARMACEUTICAL COMPOSITIONS OF VENLAFAXINE AND PROCESS FOR PREPARATION THEREOF” (priority 2006, published 2008).
# System: monoamine oxidase
# Details: background statement
compound,measurement,value
COc1ccc(C(CN(C)C)C2(O)CCCCC2)cc1 (stereo not shown) [Venlafaxine],inhibitory activity on monoamine oxidase,no inhibitory activity
